# In patent publication US20070015733A1, “Aryl Phosphate Derivatives of d4T having Activity Against Resistant HIV Strains” (Parker Hughes Institute, priority 1998, published 2007):
# Legend:
# [1] = system: AZT-sensitive HIV-1 (strain: HTLVIIIB); experiment: Inhibition of HIV-1 HTLVIIIB in PBMC, RT activity assays (Example 14); format: cell-based; details: Human immunodeficiency virus 1, PBMC
# Experimental: The compounds, as well as AZT, were tested for their ability to inhibit HIV replication in peripheral blood mononuclear cells using previously described procedures (Zarling et. al., 1990 Nature 347:92; Erice et. al., 1993 Antimicrob. Agents Chemother. 37:835; Uckun et. al., 1998 Antimicrob. Agents Chemother. 42:383). […] Percent viral inhibition was calculated by comparing the RT activity values from the test substance-treated infected cells with RT values from untreated infected cells (i.e., virus controls).
# [2] = twice daily hard gelatin capsules 25-100 mg/kg; cumulative dose levels as high as […]; cited from earlier work
# human T-cell line MT2 = experiment: Cytotoxicity in MT2 cells; format: cell-based; details: even at a 100 μM concentration
# From the text: Dozens of mutant strains have been characterized as resistant to NNRTI compounds, including L1001, K103N, V106A, E138K, Y181C and Y188H/L. In particular, the Y181 C and K103N mutants may be the most difficult to treat, because they are resistant to most of the NNRTIs compounds that have been examined. […] These clinical HIV-1 isolates also harbor additional RT gene mutations conferring NRTI-resistance and display a zidovudine-resistant phenotype (see Table 11 and Table 12).
# [3] = system: peripheral blood mononuclear cells; experiment: Microculture tetrazolium assay (MTA) cytotoxicity in PBMNC; details: viability of PBMC
# Experimental: Percent inhibition of viral replication was calculated by comparing the p24 and RT activity values from the test substance-treated infected cells with those from untreated infected cells. In parallel, the cytotoxicity of the compounds was examined using a microculture tetrazolium assay (MTA) of cell proliferation, as described.in the Zarling, Enrice, and Uckun articles Supra).
# Cellular Assays of Anti-HIV Activity and Cytotoxicity. […] Percent viral inhibition was calculated by comparing the RT activity values from the test substance-treated infected cells with RT values from untreated infected cells (i.e., virus controls).
# Antiviral susceptibility assays. Phenotypic drug susceptibility studies of HIV-1 isolates and strains were performed by measuring the production of the p24 gag protein in peripheral blood mononuclear cells (PBMC) from seronegative healthy volunteers in the presence of increasing concentrations of the anti-HIV agent using the quantitative Coulter HIV-1 p24 antigen ezyme immunoassay (EIA) and HIV-1 p24 Antigen Kinetic Standard (Beckman Coulter), as previously described (Uckun, 1998, Antimicrobial Agents and Chemotherapy 37(4): 835-38). Informed consent was obtained from the blood donors according to DHHS guidelines using consent forms approved by the Institutional Review Board. In brief, PBMC were cultured for 72 h in RPMI 1640 medium (Gibco) supplemented with 20% (vol/vol) heat-inactivated fetal bovine serum, 5% human interleukin-2 (Zeptometrix), 2 mM L-glutamine, 25 mM HEPES, 2 g/L NaHCO3, 100 U/ml penicillin/streptomycin (Gibco), 50 μg/ml gentamicin (Gibco), and 5 μg/ml phytohemagglutinin-P (PHA-P) (Sigma) for 24-72 hours prior to exposure to HIV at a multiplicity of infection of 0.001-0.1 during a 1-h adsorbtion period at 37±1° C. in a humidified 5-7% CO2 atmosphere. Subsequently, cells were cultured in 96-well microtiter plates (100 μl/well; 2×10^6 cells/ml, triplicate wells) in the presence of the anti-HIV agents at 6-7 different concentrations ranging from 0.0001 μM to 100 μM, and 25 μL aliquots of culture supernatants were removed from the wells on day 6 after infection for p24 EIA, as previously described (Uckun, 1998, Antimicrobial Agents and Chemotherapy, 37(4):835-38). Controls included uninfected and untreated cells (background control) and infected but untreated (virus control) cells. The p24 EIA utilizes a murine monoclonal antibody to HIV core protein used to coat microwell strips to which the antigen present in the test culture supernatant samples binds. Percent inhibition of viral replication was calculated by comparing the p24 values from the test substance-treated infected cells with p24 values from untreated infected cells (i.e., virus controls). The IC50 values were determined using the Statview statistics program (SAS Institute, Inc.). In parallel, the effects of various treatments on cell viability were also examined as previously described (Uckun, 1998, Antimicrobial Agents and Chemotherapy, 42:383-388). In brief, noninfected PBMC were treated with each compound for 5 days under identical experimental conditions. A microculture tetrazolium assay (MTA) was performed to quantitate cellular proliferation (Uckun, 1998, Antimicrobial Agents and Chemotherapy, 42:383-388).
# In parallel, the cytotoxicity of the compounds was examined using a microculture tetrazolium assay (MTA) of cell proliferation, as described (in the Zarling, Enrice, and Uckun articles Supra).
Compound,"IC50 ([1]; Table 15, preliminary, first human source of PBMC)","IC50 ([1]; Table 16, AZT values in nM per footnote)","IC50 ([1]; Table 17, later analysis from a larger sample pool)",tolerability of four-week treatment course [2],cytotoxicity in MT2 cells (human T-cell line MT2),CC50 [3]
"Cc1cn([C@H]2C[C@H](N=[N+]=[N-])[C@@H](CO)O2)c(=O)[nH]c1=O [AZT, 3′-azido-3′-deoxythymidine]",7 nM,81.7 nM,4 ± 1 nM,,,
"COC(=O)C(C)NP(=O)(OC[C@@H]1C=C[C@H](n2cc(C)c(=O)[nH]c2=O)O1)Oc1ccc(Br)cc1 (stereo partly drawn) [Compound 1c, d4T-5′-[p-bromo-phenylmethoxyalaninyl phosphate]]",,,,very well tolerated,without any evidence of cytotoxicity,> 100000 nM
